Assay results as given in US12171775B2, “Use of cladribine for treating autoimmune neuromuscular disease” (priority 2017, dated 2024).

Tests used:
[1] = test system: patient with acetylcholine receptor antibody positive myasthenia gravis; assay: Treatment of a person suffering from myasthenia gravis with cladribine (single patient; clinical rating scales and tolerability); type: in vivo, human
Description: A patient with existing, acetylcholine receptor antibody positive myasthenia gravis (MG) diagnosed.
They received 20 mg cladribine, administered by subcutaneous injection of 2.5 mg cladribine in 2.5 ml in each of four limbs (total 10 mg), on each of two consecutive days. This total dose of 20 mg is markedly less than the total doses of 200-400 mg given in recent multiple sclerosis trials. Clinical assessment using two scales was performed one week before initiation of cladribine administration, and three months after first cladribine administration. The treatment with oral steroids and pyridostigmine remained stable over observation period.
The two scales used were:
• Myasthenia Gravis Composite Scale (Burns T et al. Neurology 74:1434-40 (2010) • Myasthenia Gravis Activities of Daily Living (Wolfe G et al. Neurology 52: 1487-89 (1999)

[2] = biological target: A2A (adenosine receptor class 2a) (Homo sapiens, UniProt P29274); conditions: cited from earlier work
[3] = test system: human lymphocytes; conditions: phosphorylation by CK blocked, lymphocyte death does not occur; cited from earlier work
[4] = test system: multiple sclerosis (MS) patients; conditions: 3.5 mg/kg and 5.25 mg/kg by oral tablets; cited from earlier work
[5] = test system: patient with IgM associated inflammatory peripheral neuropathy; conditions: intravenous, approximately 100 mg cumulative dose; cited from earlier work
[6] = 3 months post vs pre-cladribine

Chain of A2A (adenosine receptor class 2a) (P29274 whole entry): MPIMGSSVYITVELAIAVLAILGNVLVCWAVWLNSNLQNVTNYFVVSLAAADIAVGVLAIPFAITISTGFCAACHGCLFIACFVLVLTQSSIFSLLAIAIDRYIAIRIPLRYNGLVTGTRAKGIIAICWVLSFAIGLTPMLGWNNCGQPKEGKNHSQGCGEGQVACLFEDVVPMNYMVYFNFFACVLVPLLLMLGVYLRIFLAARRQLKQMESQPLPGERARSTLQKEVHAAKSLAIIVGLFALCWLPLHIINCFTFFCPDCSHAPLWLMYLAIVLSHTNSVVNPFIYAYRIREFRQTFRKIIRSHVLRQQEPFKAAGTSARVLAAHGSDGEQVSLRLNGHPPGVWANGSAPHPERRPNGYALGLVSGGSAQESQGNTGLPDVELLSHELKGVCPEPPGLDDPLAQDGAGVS

Cn1cnc([N+](=O)[O-])c1Sc1ncnc2nc[nH]c12 [azathioprine]
Tolerability of prior azathioprine treatment ([1]; same MG patient, before cladribine, stopped after 1 week of treatment): severe intolerance due to nausea and vomiting

Nc1nc(Cl)nc2c1ncn2[C@H]1C[C@H](O)[C@@H](CO)O1 [cladribine, 2-chloro-2′-deoxyadenosine]
MG Composite Scale score, 3 months post-cladribine ([1]; 20 mg total s.c. (10 mg on each of two consecutive days), 3 months after first administration, pre-cladribine score 31): 6
MG Activities of Daily Living score, 3 months post-cladribine ([1]; 20 mg total s.c., 3 months after first administration, pre-cladribine score 19): 8
Adverse events considered possible side effects of cladribine ([1]; 20 mg total s.c., MG patient): did not experience any adverse events
Transient worsening of signs after treatment initiation ([1]; 20 mg total s.c., MG patient): did not produce a transient worsening of signs
Improvement on the MG Activities of Daily Living scale [1, 6]: 11 point
Improvement on the MG Composite Scale [1, 6]: 25 point
Durability of clinical improvement after the 3 month assessment ([1]; MG patient, led to gradual withdrawal of baseline treatment): sustained over the following seven months
Period of beneficial effects on the disease without frequent retreatment ([1]; after a short period of treatment): over 10 months
Affinity at A2A receptors [2]: high affinity
Induced cytokine production [3]: decreased
Clinical outcome in MS (relapses, disability, MRI disease activity) [4]: fewer relapses, less disability, and less disease activity
Clinical outcome in IgM associated inflammatory peripheral neuropathy [5]: symptomatic improvement and reduced levels of pathogenic antibodies
